Experimental findings from patent US9359311B2, “Substituted aromatic oligomers” (NEUROSCIOS GMBH, priority 2011, dated 2016) are described below.

Several values for one entry are separate records, joined by “and”; a condition that tells them apart may be missing. Equal values may be shown once.

The target of the assay is T1, biotinylated Aβ1-42 (Homo sapiens, UniProt P05067).
T1 construct: To assure monomerisation of biotinylated Aβ1-42 (Anaspec #23523-0.5) the peptide was thoroughly monomerised; purchased Anaspec 23523-0.5
T1 sequence (P05067 672-713 limits assumed): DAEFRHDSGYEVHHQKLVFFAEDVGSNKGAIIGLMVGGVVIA
Description: Inhibition of Abeta oligomerisation (biotinylated Aβ1-42, neutravidin plate, streptavidin-HRP). The class given is biochemical. To be noted: inhibition of Aβ1-42 aggregation, approximately 12 nM Aβ1-42, PBS pH 7.4, 2% DMSO, 30 min RT.
A word on the IC50: it is the concentration at which inhibition is half-maximal. Low values mean higher potency, high ones lower potency. `O=C(O)Cc1cc(-c2ccc(-c3ccccc3C(=O)O)s2)sc1-c1ccc(-c2sc(-c3ccc(-c4ccccc4C(=O)O)s3)cc2CC(=O)O)s1` [Example 43, 2-{5-[4-(Carboxymethyl)-5-{5-[3-(carboxymethyl)-5-[5-(2-carboxyphenyl)thiophen-2-yl]thiophen-2-yl]thiophen-2-yl}thiophen-2-yl]thiophen-2-yl}benzoic acid] had an IC50 of 3.98 µM.
The same measure for `O=C(O)CCc1cc(-c2ccc(C(=O)O)s2)sc1-c1ccc(-c2sc(-c3ccc(C(=O)O)s3)cc2CCC(=O)O)s1` [Example 53, 5-[4-(2-Carboxethyl)-5-{5-[3-(2-carboxyethyl)-5-(5-carboxythiophen-2-yl)thiophen-2-yl]thiophen-2-yl}thiophen-2-yl]thiophene-2-carboxylic acid]: 3.98 µM; for `C#Cc1cc(CC(=O)O)c(-c2ccc(-c3sc(C#C)cc3CC(=O)O)s2)s1` [Example 86, 2-(2-{5-[3-(Carboxymethyl)-5-ethynylthiophen-2-yl]thiophen-2-yl}-5-ethynylthiophen-3-yl)acetic acid]: 20 µM; for `O=C(O)Cc1cc(-c2cccc(OC(F)(F)F)c2)sc1-c1ccc(-c2sc(-c3cccc(OC(F)(F)F)c3)cc2CC(=O)O)s1` [Example 87, 2-(2-{5-[3-(Carboxymethyl)-5-[3-(trifluoromethoxy)phenyl]thiophen-2-yl]thiophen-2-yl}-5-[3-(trifluoromethoxy)phenyl]thiophen-3-yl)acetic acid]: 1 µM.
`O=C(O)Cc1cc(-c2cccc(C(=O)O)c2)sc1-c1ccc(-c2sc(-c3cccc(C(=O)O)c3)cc2CC(=O)O)s1` [Example 10, 3-[4-(Carboxymethyl)-5-{5-[3-(carboxymethyl)-5-(3-carboxyphenyl)thiophen-2-yl]thiophen-2-yl}thiophen-2-yl]benzoic acid] had an IC50 of 7.94 µM.
For `CS(=O)(=O)c1ccc(-c2cc(CCC(=O)O)c(-c3ccc(-c4sc(-c5ccc(S(C)(=O)=O)cc5)cc4CCC(=O)O)s3)s2)cc1` [Example 51, 3-(2-{5-[3-(2-Carboxyethyl)-5-(4-methanesulfonylphenyl)thiophen-2-yl]thiophen-2-yl}-5-(4-methanesulfonylphenyl)thiophen-3-yl)propanoic acid], the IC50 is 1.58 µM and 7.94 µM.
`O=C(O)Cc1cc(-c2cc(CC(=O)O)c(-c3ccc(-c4cccc(C(=O)O)c4)s3)s2)sc1-c1ccc(-c2cccc(C(=O)O)c2)s1` [Example 66, 3-{5-[3-(Carboxymethyl)-5-[4-(carboxymethyl)-5-[5-(3-carboxyphenyl)thiophen-2-yl]thiophen-2-yl]thiophen-2-yl]thiophen-2-yl}benzoic acid] showed an IC50 of 5.01 µM.
For `O=C(O)c1cccc(-c2cc(CCO)c(-c3ccc(-c4sc(-c5cccc(C(=O)O)c5)cc4CCO)s3)s2)c1` [Example 74, 3-(5-{5-[5-(3-Carboxyphenyl)-3-(2-hydroxyethyl)thiophen-2-yl]thiophen-2-yl}-4-(2-hydroxyethyl)thiophen-2-yl)benzoic acid], it took 5.01 µM to reach half-maximal inhibition (IC50).
The compound `O=C(O)Cc1cc(-c2cccnc2)sc1-c1ccc(-c2sc(-c3ccc(C(=O)O)s3)cc2CC(=O)O)s1` [Example 13, 5-[4-(Carboxymethyl)-5-{5-[3-(carboxymethyl)-5-(pyridin-3-yl)thiophen-2-yl]thiophen-2-yl}thiophen-2-yl]thiophene-2-carboxylic acid] gave an IC50 of 7.94 µM.
Regarding `O=C(O)Cc1cc(-c2ccc(-c3cc(CC(=O)O)c(-c4ccc(-c5cccc(C(=O)O)c5)s4)s3)s2)sc1-c1ccc(-c2cccc(C(=O)O)c2)s1` [Example 65, 3-{5-[3-(Carboxymethyl)-5-{5-[4-(carboxymethyl)-5-[5-(3-carboxyphenyl)thiophen-2-yl]thiophen-2-yl]thiophen-2-yl}thiophen-2-yl]thiophen-2-yl}thiophen-2-benzoic acid], inhibition was half-maximal at 0.631 µM (IC50).
Consider `O=C(O)/C=C/c1ccc(-c2cc(CC(=O)O)c(-c3ccc(-c4sc(-c5ccc(/C=C/C(=O)O)s5)cc4CC(=O)O)s3)s2)s1` [Example 64], for which the IC50 is 2.51 µM.
The compound `C[S+]([O-])c1cccc(-c2cc(CC(=O)O)c(-c3ccc(-c4sc(-c5cccc([S+](C)[O-])c5)cc4CC(=O)O)s3)s2)c1` (stereo not shown) [Example 24, 2-(2-{5-[3-(Carboxymethyl)-5-(3-methanesulfinylphenyl)thiophen-2-yl]thiophen-2-yl}-5-(3-methanesulfinylphenyl)thiophen-3-yl)acetic acid] had an IC50 of 10 µM.
In turn, `CS(=O)(=O)c1ccc(-c2sc(-c3ccc(-c4cc(CC(=O)O)c(-c5ccc(S(C)(=O)=O)cc5)s4)cc3)cc2CC(=O)O)cc1` [Example 37, 2-(5-{4-[4-(Carboxymethyl)-5-(4-methanesulfonylphenyl)thiophen-2-yl]phenyl}-2-(4-methanesulfonylphenyl)thiophen-3-yl)acetic acid] had an IC50 of 5.01 µM.
Under `O=C(O)Cc1cc(-c2ccc(C(=O)N3CCCC3)c(F)c2)sc1-c1ccc(-c2sc(-c3ccc(C(=O)N4CCCC4)c(F)c3)cc2CC(=O)O)s1` [Example 78, 2-(2-{5-[3-(Carboxymethyl)-5-[3-fluoro-4-(pyrrolidine-1-carbonyl)phenyl]thiophen-2-yl]thiophen-2-yl}-5-[3-fluoro-4-(pyrrolidine-1-carbonyl)phenyl]thiophen-3-yl)acetic acid] stands 5.01 µM; under `O=C(O)Cc1ccc(-c2ccc(-c3ccc(CC(=O)O)s3)s2)s1` [Example 72, 2-(5-{5-[5-(Carboxymethyl)thiophen-2-yl]thiophen-2-yl}thiophen-2-yl)acetic acid], 25.1 µM; under `O=C(O)Cc1cc(-c2ccc(-c3cccc(C(=O)O)c3)s2)sc1-c1ccc(-c2sc(-c3ccc(-c4cccc(C(=O)O)c4)s3)cc2CC(=O)O)s1` [Example 20, 3-{5-[4-(Carboxymethyl)-5-{5-[3-(carboxymethyl)-5-[5-(3-carboxyphenyl)thiophen-2-yl]thiophen-2-yl]thiophen-2-yl}thiophen-2-yl]thiophen-2-yl}benzoic acid], 1 µM.
Under `O=C(O)Cc1cc(-c2ccc(-c3cc(CC(=O)O)c(-c4ccc(-c5ccc(C(=O)O)cc5)s4)s3)s2)sc1-c1ccc(-c2ccc(C(=O)O)cc2)s1` [Example 54, 4-{5-[3-(Carboxymethyl)-5-{5-[4-(carboxymethyl)-5-[5-(4-carboxyphenyl)thiophen-2-yl]thiophen-2-yl]thiophen-2-yl}thiophen-2-yl]thiophen-2-yl}benzoic acid] stands 1.26 µM; under `NCCc1ccsc1-c1ccc(-c2sc(-c3ccc(-c4cc(CCN)c(-c5ccc(-c6sccc6CCN)s5)s4)s3)cc2CCN)s1` [Example 42, 2-(2-{5-[3-(2-Aminoethyl)-5-{5-[4-(2-aminoethyl)-5-{5-[3-(2-aminoethyl)thiophen-2-yl]thiophen-2-yl}thiophen-2-yl]thiophen-2-yl}thiophen-2-yl]thiophen-2-yl}thiophen-3-yl)ethan-1-amine], 0.251 µM.
`COC(=O)c1ccc(-c2cc(CC(=O)O)c(-c3ccc(-c4sc(-c5ccc(C(=O)OC)s5)cc4CC(=O)O)s3)s2)s1` [Example 70, 2-(2-{5-[3-(Carboxymethyl)-5-[5-(methoxycarbonyl)thiophen-2-yl]thiophen-2-yl]thiophen-2-yl}-5-[5-(methoxycarbonyl)thiophen-2-yl]thiophen-3-yl)acetic acid] gave an IC50 of 3.16 µM.
Take `O=C(O)Cc1cc(-c2cccc(C(=O)NC3CC3)c2)sc1-c1ccc(-c2sc(-c3cccc(C(=O)NC4CC4)c3)cc2CC(=O)O)s1` [Example 80, 2-(2-{5-[3-(Carboxymethyl)-5-[3-(cyclopropylcarbamoyl)phenyl]thiophen-2-yl]thiophen-2-yl}-5-[3-(cyclopropylcarbamoyl)phenyl]thiophen-3-yl)acetic acid]: the IC50 was 7.94 µM.
As for `O=C(O)Cc1ccsc1-c1ccc(-c2sc(-c3ccc(-c4cc(CC(=O)O)c(-c5ccc(-c6sccc6CC(=O)O)cc5)s4)cc3)cc2CC(=O)O)cc1` [Example 38, 2-(2-{4-[3-(Carboxymethyl)-5-{4-[4-(carboxymethyl)-5-{4-[3-(carboxymethyl)thiophen-2-yl]phenyl}thiophen-2-yl]phenyl}thiophen-2-yl]phenyl}thiophen-3-yl)acetic acid], the IC50 was 1.58 µM.
Regarding `O=C(O)Cc1ccsc1-c1ccc(-c2sc(-c3cccc(-c4cc(CC(=O)O)c(-c5ccc(-c6sccc6CC(=O)O)s5)s4)c3)cc2CC(=O)O)s1` [Example 34, 2-(2-{5-[3-(Carboxymethyl)-5-{3-[4-(carboxymethyl)-5-{5-[3-(carboxymethyl)thiophen-2-yl]thiophen-2-yl}thiophen-2-yl]phenyl}thiophen-2-yl]thiophen-2-yl}thiophen-3-yl)acetic acid], inhibition was half-maximal at 0.794 µM (IC50).
For `CC(=O)NCCc1cc(-c2ccc(C(=O)O)s2)sc1-c1ccc(-c2sc(-c3ccc(C(=O)O)s3)cc2CCNC(C)=O)s1` [Example 7, 5-(5-{5-[5-(5-Carboxythiophen-2-yl)-3-(2-acetamidoethyl)thiophen-2-yl]thiophen-2-yl}-4-(2-acetamidoethyl)thiophen-2-yl)thiophene-2-carboxylic acid], the IC50 was 3.98 µM.
For `O=C(O)Cc1cc(-c2cccnc2)sc1-c1ccc(-c2sc(-c3cccnc3)cc2CC(=O)O)s1` [Example 15, 2-(2-{5-[3-(Carboxymethyl)-5-(pyridin-3-yl)thiophen-2-yl]thiophen-2-yl}-5-(pyridin-3-yl)thiophen-3-yl)acetic acid], the IC50 was 50.1 µM.
With `O=C(O)Cc1cc(-c2ccc(-c3ccc(C(=O)O)cc3)s2)sc1-c1ccc(-c2sc(-c3ccc(-c4ccc(C(=O)O)cc4)s3)cc2CC(=O)O)s1` [Example 19, 4-{5-[4-(Carboxymethyl)-5-{5-[3-(carboxymethyl)-5-[5-(4-carboxyphenyl)thiophen-2-yl]thiothiophen-2-yl]thiophen-2-yl}thiophen-2-yl]thiophen-2-yl}benzoic acid], the IC50 was 3.98 µM.
